Test results published in patent US5686416A, “Increasing blood-brain barrier permeability with permeabilizer peptides” (priority 1993, dated 1997).

Key:
blood-brain barrier [1] = experiment: Uptake of radiolabelled substances of different molecular weights into the brain (Table I)
Method: The animals were euthanatized 10 minutes after the co-administration and the radioactivity present in brain was measured as described previously for ^14 C sucrose.

bradykinin receptor = biological target: T1, bradykinin receptor (Rattus norvegicus, UniProt P25023); experiment: Displacement of [^3 H]-bradykinin binding on rat brain endothelial cells; conditions: no competing peptide; corrected for nonspecific binding
T1 construct: endogenous in cells; host or cells: cultured rat brain microvessel endothelial cells, passages 9 to 12, intact monolayers
T1 sequence (P25023 1-396): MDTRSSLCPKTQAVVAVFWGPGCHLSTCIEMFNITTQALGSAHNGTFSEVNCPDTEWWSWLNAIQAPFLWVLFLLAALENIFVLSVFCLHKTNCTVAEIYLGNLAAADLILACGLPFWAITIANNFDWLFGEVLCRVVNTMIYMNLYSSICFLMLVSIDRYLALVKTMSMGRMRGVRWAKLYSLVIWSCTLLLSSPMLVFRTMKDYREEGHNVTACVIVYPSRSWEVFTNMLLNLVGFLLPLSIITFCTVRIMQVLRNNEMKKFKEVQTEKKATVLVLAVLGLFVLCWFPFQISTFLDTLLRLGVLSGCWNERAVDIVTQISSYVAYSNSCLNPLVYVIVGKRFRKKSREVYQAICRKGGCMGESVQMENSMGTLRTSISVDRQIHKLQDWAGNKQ
Method: Endothelial cells employed in this study were isolated from individual rat brain microvessels and cultured. For binding studies, cells at passages 9 to 12 were seeded (at a 1:5 split) onto gelatinized 24-well tissue culture dishes. Binding experiments were conducted on day 7 after seeding. […] All subsequent manipulations were performed in the cold room, unless otherwise indicated.
To initiate binding incubations, the buffer was removed from cell layers and replaced with 0.4 mL fresh binding buffer at 4° C. containing [^3 H-pro^2,3 ]-bradykinin ([^3 H]-bradykinin) and competing non-radioactive peptides at concentrations indicated for the individual experiments. Triplicate wells were used for each experimental condition. For later determination of cell number, where indicated, certain wells were covered with binding buffer without radioligand and incubated in parallel with the other samples. […]
The dissociated cells were collected, diluted into 10 mL Isoton diluent, and cell numbers were determined with a Coulter counter. […] The two aliquots were pooled into a single scintillation vial, 10 mL of Hydrofluor scintillation fluid was added and samples were counted for tritium in a scintillation counter. […] Aliquots of each [^3 H]-bradykinin dilution that was added to the cells were counted along with the other samples. […]

blood-brain barrier [2] = experiment: Dose response of blood-brain barrier permeabilizers, sucrose uptake studies; type: in vivo; conditions: mice; various amounts; FIGS. 3c and 3d
Method: Female Balb/C mice weighing approximately 20 g were used. All solutions were prepared in sterile phosphate-buffered saline. […] In other experiments, mice were euthanitized 10 minutes after the ^14 C sucrose administration. Blood was collected in heparinized tubes and centrifuged to separate plasma from the resulting pellet. Radioactivity in a 100 μl aliquot of plasma was measured by liquid scintillation counting after the addition of 15 ml of Aquasol-2 (Dupont). The brain was removed and homogenized in 2.5 ml of water and 2.5 ml of 1% sodium dodecyl sulfate (SDS). One ml of the homogenate was aliquoted and added to 15 ml of Aquasol-2 for counting. Brain uptake of sucrose was calculated and graphically expressed as percent of injected dose×100. […] Each data point represents the mean ± s.d. from 8 mice.

opiate receptor = experiment: Tail flick assay, antinociceptive effect of loperamide; type: in vivo; conditions: mice; nalorphine 10 mg/kg i.p. 15 minutes before
Method: Female Nalb/C mice weighing approximately 20 g were used. The tail flick assay was performed using a Tail Flick Apparatus model TF6 (Emdie Instruments, Maidens, Va.). The intensity of the heat source was adjusted daily to yield a reaction time between 2.0 and 3.2 seconds in naive untreated mice. The maximum time of exposure to the heat source allowed was 7.5 seconds. The tail withdrawal reaction time of each mouse was measured 4 times at 10 second intervals immediately prior to intravenous injections of the experimental substances via the tail vein. The last three values were averaged and taken as baseline value (Vo). Another set of four measurements was taken at the following intervals after tail vein injection of the opiate receptor agonist loperamide with and without the other agents: immediately, 5 min, 10 min, 15 min, 30 min, and 60 min. The last three values for each of these time points (V) were averaged. […] The results were expressed as percent of maximum antinociceptive response according to the formula: 100×(V-Vo)/(7.5-Vo).

angiotensin II receptors = experiment: Drinking behavior of rats with angiotensin II analogue; type: in vivo; conditions: 1 μg β-Asp^1 -angiotensin II, 10 μg permeabilizer A-7, with or without 8 μg saralasin i.v., 1 hour
Method: The volume of water consumed by each rat over a 1 hour interval was measured.
The saralasin was given because it is a known angiotensin II receptor antagonist. Again, the volume of water consumed by each rat over a 1 hour interval was measured.

dopamine receptors = conditions: rats; 300 μg domperidone with or without 10 μg permeabilizer A-7, one hour before apomorphine 0.75 mg/kg s.c.
Method: Domperidone is a dopamine receptor antagonist used clinically as an anti-emetic by virtue of its action at the area postrema outside the blood-brain barrier.
The activity cages were standard size rat cages with two photocell beams running across the floor of each cage. Any movement of the rat through either of the beams was recorded by a computer. Locomotor activity was measured as the number of beam breaks in a sequence of 10-minute intervals over a two hour period.
The motor activity of the rats was measured in activity cages over 10-minute intervals for up to 2 hours post-apomorphine injection.

9L Glioma cells = experiment: Survival time of rats with brain tumor implants; type: in vivo
Method: Male Fischer 344 rats (200-250 g) were anesthetized with ketamine HCL (100 mg/kg) and acepromazine (10 mg/kg). The animals were placed in a stereotaxic device. The head of each animal was shaved and a midline incision was made to expose the skull. A small hole was drilled over the right sensorimotor cortex. A […] cell suspension (250,000 9L Glioma cells) was injected over 5 minutes into the right caudate putamen of each animal and the scalp sutured. Animals were observed daily for signs of failing health. When signs of very poor health were observed (eye hemorrhage or loss of righting reflex) animals were euthanatized and the brains examined for presence of tumor.
The results are shown in Table III as median survival with range.

C. neoformans = experiment: Experimentally-induced cryptococcal meningitis in rabbits, CSF colony counts; type: in vivo, Cryptococcus neoformans; conditions: 1 mg AmB/kg daily i.v., Days 11 and 14
Method: Four day old cultures of C. neoformans containing 100 μg of chloramphenicol per mL were absorbed on cotton swabs, suspended in 15 mM phosphate-buffered saline, and adjusted to approximately 5×10^7 colony forming units (CFU)/mL. New Zealand White rabbits (2-3 kg) were immunosuppressed with 2.5 mg cortisone acetate administered intramuscularly (i.m.) beginning one day prior to inoculation with C. neoformans (Day 0), and once daily thereafter until study termination. On Day 1 rabbits were sedated with ketamine (100-150 mg) and xylazine (15-25 mg) i.m., and intracisternally inoculated with 0.3 mL of C. neoformans suspension. On Day 4 CSF was collected and plated on agar plates containing chloramphenicol to establish a baseline level for C. neoformans counts (CFU/mL), and drug treatment was then initiated. CSF samples were also withdrawn for C. neoformans counts on Days 7, 11 and 14. The duration of drug treatment was 10 days.
Each group size generally consisted of three to five animals. All treatments were administered via an ear vein, and permeabilizer A-7 was always administered immediately prior to AmB. CSF samples were always withdrawn prior to drug therapy on treatment days.

[3] = Table IV, additional experiment

Inulin [^3 H-Inulin]
% Injected Dose, +10 μg A-7 (blood-brain barrier [1]; mice, brain, labelled molecule i.v. with 10 μg permeabilizer A-7, 10 minutes, mean ± s.d.): 0.110 ± 0.016 % Injected Dose
% Injected Dose, Control (blood-brain barrier [1]; mice, brain, labelled molecule i.v. with saline, 10 minutes, mean ± s.d.): 0.075 ± 0.018 % Injected Dose

^3 H-Bovine Serum Albumin: radiolabelled bovine serum albumin, mol. weight 68,000
% Injected Dose, +10 μg A-7 (blood-brain barrier [1]; mouse, in vivo, iv): 0.209 ± 0.056 % Injected Dose
% Injected Dose, Control (blood-brain barrier [1]; mouse, in vivo, iv): 0.333 ± 0.098 % Injected Dose

arginine-proline-proline-glycine-phenylalanine-serine-proline-phenylalanine-arginine [[^3 H]-bradykinin]
Scatchard analysis of [^3 H]-bradykinin binding (bradykinin receptor): two affinity classes of [^3 H]-bradykinin binding site

OC[C@H]1O[C@@](CO)(O[C@H]2O[C@H](CO)[C@@H](O)[C@H](O)[C@H]2O)[C@@H](O)[C@@H]1O [^14 C-Sucrose, Sucrose]
% Injected Dose, +10 μg A-7 (blood-brain barrier [1]; mouse, in vivo, iv): 0.165 ± 0.049 % Injected Dose
% Injected Dose, Control (blood-brain barrier [1]; mouse, in vivo, iv): 0.059 ± 0.014 % Injected Dose

[D-Arg^0 ]-A-7 [A-14]
uptake of ^14 C-sucrose into the brain compared with A-7 (blood-brain barrier [2]): comparable to A-7

C=CCN1CC[C@]23c4c5ccc(O)c4O[C@H]2[C@@H](O)C=C[C@H]3[C@H]1C5 [nalorphine]
effect of pretreatment on the antinociceptive response to permeabilizer A-7 and loperamide (opiate receptor): completely antagonized

[dehydro Pro^2,7 ]-A-7 [A-9]
uptake of ^14 C-sucrose into the brain compared with A-7 (blood-brain barrier [2]): comparable to A-7

CNCC(=O)N[C@@H](CCCN=C(N)N)C(=O)N[C@H](C(=O)N[C@@H](Cc1ccc(O)cc1)C(=O)N[C@H](C(=O)N[C@@H](Cc1cnc[nH]1)C(=O)N1CCC[C@H]1C(=O)N[C@@H](C)C(=O)O)C(C)C)C(C)C [saralasin]
water consumption (angiotensin II receptors): remained within a normal range

O=c1[nH]c2ccccc2n1CCCN1CCC(n2c(=O)[nH]c3cc(Cl)ccc32)CC1 [Domperidone]
effect on motor activity induced by apomorphine (dopamine receptors): little, if any, effect

N.N.[Cl][Pt][Cl] [Cisplatin]
Median Survival (9L Glioma cells; Table III, Fischer 344 rats, 9L glioma, i.v. treatment days 5 through 14, cisplatin 200 μg/rat, A-7 50 μg, bradykinin 1 mg): 13 days
Survival, Range (9L Glioma cells; Table III, Fischer 344 rats, 9L glioma, treatment days 5 through 14): 9 to 18 days
Median Survival (9L Glioma cells; [3]): 15.5 days
Survival, Range (9L Glioma cells; [3]): 12 to 18 days

C[C@@H]1[C@H](O)[C@@H](C)/C=C/C=C/C=C/C=C/C=C/C=C/C=C/[C@H](O[C@@H]2O[C@H](C)[C@@H](O)[C@H](N)[C@@H]2O)C[C@@H]2O[C@](O)(C[C@@H](O)C[C@@H](O)[C@H](O)CC[C@@H](O)C[C@@H](O)CC(=O)O[C@H]1C)C[C@H](O)[C@H]2C(=O)O [AmB, Amphotericin B]
CSF C. neoformans counts compared to controls (C. neoformans): significantly lowered

B1: ^3 H-Ovalbumin: radiolabelled ovalbumin, mol. weight 46,000 (protein, UniProt P01012 2-386, looked up)
Ovalbumin: GSIGAASMEFCFDVFKELKVHHANENIFYCPIAIMSALAMVYLGAKDSTRTQINKVVRFDKLPGFGDSIEAQCGTSVNVHSSLRDILNQITKPNDVYSFSLASRLYAEERYPILPEYLQCVKELYRGGLEPINFQTAADQARELINSWVESQTNGIIRNVLQPSSVDSQTAMVLVNAIVFKGLWEKAFKDEDTQAMPFRVTEQESKPVQMMYQIGLFRVASMASEKMKILELPFASGTMSMLVLLPDEVSGLEQLESIINFEKLTEWTSSNVMEERKIKVYLPRMKMEEKYNLTSVLMAMGITDVFSSSANLSGISSAESLKISQAVHAAHAEINEAGREVVGSAEAGVDAASVSEEFRADHPFLFCIKHIATNAVLFFGRCVSP
modifications: tritium label
% Injected Dose, +10 μg A-7 (blood-brain barrier [1]; mouse, in vivo, iv): 0.093 ± 0.017 % Injected Dose
% Injected Dose, Control (blood-brain barrier [1]; mouse, in vivo, iv): 0.079 ± 0.016 % Injected Dose

B2: ^3 H-RNase: radiolabelled RNase, mol. weight 12,600 (protein, UniProt P61823 27-150, looked up)
Ribonuclease pancreatic: KETAAAKFERQHMDSSTSAASSSNYCNQMMKSRNLTKDRCKPVNTFVHESLADVQAVCSQKNVACKNGQTNCYQSYSTMSITDCRETGSSKYPNCAYKTTQANKHIIVACEGNPYVPVHFDASV
modifications: tritium label
% Injected Dose, +10 μg A-7 (blood-brain barrier [1]; mouse, in vivo, iv): 0.117 ± 0.030 % Injected Dose
% Injected Dose, Control (blood-brain barrier [1]; mouse, in vivo, iv): 0.123 ± 0.039 % Injected Dose
